The record followed here is publication PMC12382740, “In Vitro and In Vivo Characterization of Novel Cathelicidin-Based Peptides with Antimicrobial Activity Against Pseudomonas aeruginosa” (Antibiotics, 2025).

Where two headings read alike, the source gives them in different places. Bridge positions count the residues as written; N and C are the ends. Ends that are not written are not given here. Peptide text beside a SMILES is read from it.

What all share (format): cell-based, Pseudomonas aeruginosa
Assay [1] deals with Colistin Susceptible P. aeruginosa. As for the experimental part:
(§1) The antimicrobial activity of the peptides was tested against a collection of P. aeruginosa, selected by their resistance or susceptibility to colistin and/or classified as MDR strains. The origin of the strains was either clinical, relevant to the current clinical situation, or commercial strains belonging to the American Type Culture Collection (ATCC, Manassas, VA, USA), which complemented the collection for comparison and control. For the initial activity screening of the 17 peptides, we tested them against P. aeruginosa ATCC strains 1211007 and 1211101. Both strains are multidrug-resistant; however, the key difference is that strain 1211007 is susceptible to colistin, whereas strain 1211101 is resistant to colistin.
(§2) Minimum Inhibitory Concentration (MIC) of the antimicrobial agents against bacterial strains was obtained through broth microdilution assays following a protocol based on the Clinical & Laboratory Standards Institute’s guidelines. Modifications regarding microplate material and broth were included when testing the peptides’ activity and are detailed below. Colistin MICs were obtained following recommendations of the joint CLSI-EUCAST Polymyxin Breakpoints Working Group using Cation Adjusted Mueller-Hinton Broth (90922, 500 g Sigma-Aldrich®, St. Louis, MO, USA), and strains Escherichia coli 13846 (mcr-1 positive) and P. aeruginosa ATCC 27853 were used as quality controls in all assays. Bacteria were cultured in Columbia Agar plates (Columbia Agar with 5% Sheep Blood 90 mm Stacker plates, Becton Dickinson, Franklin Lakes, NJ, USA) and incubated overnight at 37 °C. Polypropylene round-bottomed 96-well plates (-96-well Polypropylene Storage Microplates, 267334, Thermo Fischer Scientific, Waltham, MA, USA) were used to prevent peptide binding to plate walls. AST broth (BD Phoenix™ AST broth, 8 mL, 246003, Becton Dickinson, Franklin Lakes, NJ, USA) was used when testing the peptides’ activity. […] Three biological and technical replicates were performed per strain.

Assay [2] has as its system Colistin-Resistant P. aeruginosa. Here is the method: as §1, §2
The test system of assay [3] is P. aeruginosa strain panel. The settings on record: for MIC50 / MIC90: panel of 15 P. aeruginosa strains. Here is the method: as §1, §2
Where [4] appears, read: colistin-susceptible P. aeruginosa, value in brackets.
The mark [5] stands for this setting: colistin-resistant P. aeruginosa, value in brackets.
[6] abbreviates: colistin-susceptible P. aeruginosa.
The mark [7] stands for this setting: colistin-resistant P. aeruginosa.

In general, MIC refers to the least concentration at which growth counts as inhibited. Higher therefore signals a less susceptible organism. On to “SSLLEKGLDGAKKAVGGLGKLGKDAVEDLESVGKGAVHDVKDVLDSVL [Dermicidin]”, for which the MIC in assay [1] (Colistin Susceptible) is over 256 µg/mL; in assay [1] (setting [4]), over 53 µM; in assay [2] (Colistin-Resistant), over 256 µg/mL; in assay [2] (setting [5]), over 53 µM.

Regarding “ISRLAGLLRKGGEKIGEKLKKIGQKIKNFFQKLVPQPEQ [CRAMP 1-39]”, the minimal inhibitory concentration (MIC) in assay [2] (Colistin-Resistant) worked out at 32 µg/mL; in assay [2] (setting [5]), 7 µM.

The MIC50 is the lowest concentration that inhibits either 50% of growth or 50% of the strains tested, depending on the study. Read a high MIC50 as lower susceptibility. A word on the MIC90: it is an inhibitory concentration at the 90% level, which refers to growth in some studies and to a panel of isolates in others. Consider Colistin [reference compound], for which the MIC was 0.75 µg/mL in assay [1] (setting [6]); 0.7 µM in assay [1] (setting [4]); 32 µg/mL in assay [2] (setting [7]); 28 µM in assay [2] (setting [5]); at most 0.125 µg/mL in assay [3] (strain 12-1110 S1); at most 0.125 µg/mL in assay [3] (strain 15-0307 S4). The MIC in assay [3] (strain 15-0803 S3) was at most 0.125 µg/mL; in assay [3] (strain 21-0308 R2), 64 µg/mL; in assay [3] (strain 21-0410 S5) it was at most 0.125 µg/mL; in assay [3] (strain 21-0505 S2) it was at most 0.125 µg/mL; in assay [3] (strain 36a) it was 0.25 µg/mL; in assay [3] (strain 38a), at most 0.125 µg/mL. The MIC was at most 0.125 µg/mL in assay [3] (strain 27853); 64 µg/mL in assay [3] (strain 16359347-2 R3); 0.25 µg/mL in assay [3] (strain C1); 0.5 µg/mL in assay [3] (strain C2); at most 0.125 µg/mL in assay [3] (strain C3); 0.25 µg/mL in assay [3] (strain C4). In assay [3] (strain C5), the minimum inhibitory concentration (MIC) was at most 0.125 µg/mL. Also, the MIC50 is at most 0.125 µg/mL in assay [3] and at most 0.11 µM in assay [3] (value in brackets). The MIC90 in assay [3] turned out to be 64 µg/mL; in assay [3] (value in brackets), 55 µM.

On to “GLVRKGGEKFGEKLRKIGQKIKEFFQKLALEIEQ [r-CRAMP]”, for which the minimal inhibitory concentration (MIC) was over 256 µg/mL in assay [1] (Colistin Susceptible), over 65 µM in assay [1] (setting [4]), 64 µg/mL in assay [2] (Colistin-Resistant) and 16 µM in assay [2] (setting [5]).

As for AKKVFKRLEKLFSKIQNDK [HP 2-20], the MIC was over 256 µg/mL in assay [1] (setting [6]), over 110 µM in assay [1] (setting [4]), over 256 µg/mL in assay [2] (setting [7]) and over 110 µM in assay [2] (setting [5]).

“KYYGNGVSCNKKGCSVDWGKAIGIIGNNSAANLATGGAAGWSK (disulfide 9-14) [Mundticin]”: the MIC in assay [1] (Colistin Susceptible) was over 256 µg/mL; in assay [1] (setting [4]) it was over 60 µM; in assay [2] (Colistin-Resistant) it was over 256 µg/mL; in assay [2] (setting [5]), over 60 µM.

As to “GIGDPVTCLKSGAICHPVFCPRRYKQIGTCGLPGTKCCKKP (disulfide 8-37, 15-30, 20-38) [β-defensin 2]”, the minimal inhibitory concentration (MIC) is over 50 µg/mL in assay [1] (setting [6]), over 12 µM in assay [1] (setting [4]), over 50 µg/mL in assay [2] (setting [7]) and over 12 µM in assay [2] (setting [5]).

As for `CC[C@H](C)[C@@H]1NC(=O)[C@H](CCC(=O)O)NC(=O)[C@@H]2CSSC[C@@H]3NC(=O)[C@H](Cc4ccc(O)cc4)NC(=O)[C@@H](NC(=O)[C@@H](NC(=O)[C@H](C)N)[C@@H](C)O)CSSC[C@@H](C(=O)N[C@@H](CCCNC(=N)N)C(=O)O)NC(=O)[C@H](CSSC[C@H](NC(=O)[C@H](CCCNC(=N)N)NC(=O)CNC(=O)[C@H]([C@@H](C)O)NC(=O)[C@H](CCCNC(=N)N)NC3=O)C(=O)N[C@@H](C)C(=O)N[C@@H]([C@@H](C)O)C(=O)N[C@@H](CCCNC(=N)N)C(=O)N[C@@H](CCC(=O)O)C(=O)N[C@@H](CO)C(=O)N[C@@H](CC(C)C)C(=O)N[C@@H](CO)C(=O)NCC(=O)N[C@@H](C(C)C)C(=O)N2)NC(=O)[C@H](CC(C)C)NC(=O)[C@H](CCCNC(=N)N)NC(=O)[C@H](Cc2ccc(O)cc2)NC(=O)[C@H](CC(C)C)NC(=O)[C@H](CCCNC(=N)N)NC(=O)CNC(=O)[C@H](CO)NC1=O` [α-defensin 5] (H-ATCYCRTGRCATRESLSGVCEISGRLYRLCCR-OH; disulfide 3-31, 5-20, 10-30; N-terminus and C-terminus assumed), the MIC in assay [1] (setting [6]) was 50 µg/mL; in assay [1] (setting [4]), 14 µM.

As for “RRRPRPPYLPRPRPPPFFPPRLPPRIPPGFPPRFPPRFP-NH2 (C-terminus assumed) [PR39]”, the MIC was determined as 14 µM in assay [1] (setting [4]) and 7 µM in assay [2] (setting [5]).

As to `CC[C@H](C)[C@@H]1NC(=O)CNC(=O)[C@H](CCSC)NC(=O)[C@H](C(C)C)NC(=O)[C@H]([C@@H](C)O)NC(=O)[C@@H]2CSSC[C@@H]3NC(=O)[C@H](Cc4c[nH]cn4)NC(=O)[C@@H](NC(=O)[C@@H](NC(=O)[C@H](Cc4ccccc4)NC(=O)[C@H](C)N)[C@@H](C)O)CSSC[C@@H](C(=O)N[C@@H](CC(C)C)C(=O)O)NC(=O)[C@H](CSSC[C@H](NC(=O)[C@H](CO)NC(=O)[C@H](CCCNC(=N)N)NC(=O)[C@H](CCCNC(=N)N)NC3=O)C(=O)N[C@@H](Cc3ccc(O)cc3)C(=O)N[C@@H](CO)C(=O)N[C@@H]([C@@H](C)O)C(=O)N[C@@H](CCC(=O)O)C(=O)N[C@@H](Cc3ccc(O)cc3)C(=O)N[C@@H](CO)C(=O)N[C@@H](Cc3ccc(O)cc3)C(=O)NCC(=O)N[C@@H]([C@@H](C)O)C(=O)N2)NC(=O)[C@H](Cc2ccccc2)NC(=O)[C@H](CCCNC(=N)N)NC(=O)[C@H](Cc2c[nH]cn2)NC(=O)[C@H](CC(N)=O)NC1=O` [α-defensin 6], the MIC in assay [1] (Colistin Susceptible) was over 50 µg/mL; in assay [1] (setting [4]) it was over 13 µM; in assay [2] (Colistin-Resistant), over 50 µg/mL; in assay [2] (setting [5]) it was over 13 µM.

With `CC[C@H](C)[C@@H]1NC(=O)[C@@H]2CSSC[C@@H]3NC(=O)[C@H](Cc4ccccc4)NC(=O)[C@H](C)NC(=O)[C@H](Cc4c[nH]c5ccccc45)NC(=O)[C@H](CC(C)C)NC(=O)[C@H](CCCNC(=N)N)NC(=O)CNC(=O)[C@H](CCC(N)=O)NC(=O)[C@H](Cc4ccc(O)cc4)NC(=O)[C@H]([C@@H](C)CC)NC(=O)[C@H](CSSC[C@H](NC(=O)[C@H](Cc4ccc(O)cc4)NC(=O)[C@@H](N)CSSC[C@@H](C(=O)O)NC3=O)C(=O)N[C@@H](CCCNC(=N)N)C(=O)N[C@@H]([C@@H](C)CC)C(=O)N3CCC[C@H]3C(=O)N[C@@H](C)C(=O)N2)NC(=O)[C@H]([C@@H](C)O)NC(=O)CNC(=O)[C@H](Cc2ccc(O)cc2)NC(=O)[C@H](CCCNC(=N)N)NC(=O)[C@H](CCCNC(=N)N)NC(=O)[C@H](CCC(=O)O)NC(=O)CNC(=O)[C@H](C)NC1=O` [α-defensin 2] (H-CYCRIPACIAGERRYGTCIYQGRLWAFCC-OH; disulfide 1-29, 3-18, 8-28; N-terminus and C-terminus assumed), the MIC was over 50 µg/mL in assay [1] (Colistin Susceptible), over 15 µM in assay [1] (setting [4]), over 50 µg/mL in assay [2] (Colistin-Resistant) and over 15 µM in assay [2] (setting [5]).

`CC[C@H](C)[C@@H]1NC(=O)[C@@H](NC(=O)[C@@H](NC(=O)[C@@H]2CCCN2C(=O)[C@H](Cc2ccccc2)NC(=O)[C@H](Cc2c[nH]cn2)NC(=O)[C@@H](NC(=O)[C@@H](N)CC(=O)O)[C@@H](C)O)[C@@H](C)CC)CSSC[C@@H](C(=O)N[C@@H](CCCCN)C(=O)N[C@H](C(=O)O)[C@@H](C)O)NC(=O)[C@@H]2CSSC[C@@H]3NC(=O)[C@@H]4CSSC[C@H](NC(=O)[C@H](Cc5ccccc5)NC1=O)C(=O)N[C@@H](CSSC[C@H](NC(=O)[C@H](CCCCN)NC(=O)[C@H](CO)NC(=O)[C@H](CCCNC(=N)N)NC(=O)[C@H](Cc1c[nH]cn1)NC3=O)C(=O)NCC(=O)N[C@@H](CCSC)C(=O)N2)C(=O)NCC(=O)N4` [Hepcidin]: the minimal inhibitory concentration (MIC) in assay [1] (setting [6]) is over 256 µg/mL; in assay [1] (setting [4]), over 92 µM; in assay [2] (setting [7]), over 256 µg/mL; in assay [2] (setting [5]) it was over 92 µM.

“GIINTLQKYYCRVRGGRCAVLSCLPKEEQIGKCSTRGRKCCRRKK (disulfide 11-40, 18-33, 23-41) [β-defensin 3]”: the minimum inhibitory concentration (MIC) in assay [1] (Colistin Susceptible) is over 50 µg/mL; in assay [1] (setting [4]) it was over 10 µM; in assay [2] (Colistin-Resistant), over 50 µg/mL; in assay [2] (setting [5]) it was over 10 µM.

Turning to “GLLRKGGEKIGEKLKKIGQKIKNFFQKLVPQPEQ [CRAMP]”, the MIC in assay [2] (Colistin-Resistant) is 32 µg/mL; in assay [2] (setting [5]), 8 µM.
